PubChem BioAssay AID1259407 (Chemical Carcinogenesis Research Information System (CCRIS), 2018)
Active and inactive are the calls of the source. The rule behind the calls is not given here.

Test system: CCRIS mutagenicity, Ames/micronucleus/aberration tests
Assay: CCRIS mutagenicity studies
Conditions: Test System: AMES SALMONELLA TYPHIMURIUM
[1] = Strain/Indicator: TA98, Metabolic Activation: NONE, Method: PREINCUBATION
[2] = Strain/Indicator: TA100, Metabolic Activation: NONE, Method: PREINCUBATION
[3] = Strain/Indicator: TA98, Metabolic Activation: NONE, Method: STANDARD PLATE
[4] = Strain/Indicator: TA100, Metabolic Activation: NONE, Method: STANDARD PLATE
[5] = Strain/Indicator: TA1535, Metabolic Activation: NONE, Method: STANDARD PLATE
[6] = Strain/Indicator: TA1537, Metabolic Activation: NONE, Method: STANDARD PLATE

Measured: mutagenic call

CCOP(=S)(OCC)SCSC(C)(C)C
inactive: Strain/Indicator: TA98, Metabolic Activation: HAMSTER, LIVER, S-9, AROCLOR 1254 (10%), Method: PREINCUBATION inactive; negative | [1] inactive; negative | Strain/Indicator: TA98, Metabolic Activation: RAT, LIVER, S-9, AROCLOR 1254 (10%), Method: PREINCUBATION inactive; negative | Strain/Indicator: TA100, Metabolic Activation: HAMSTER, LIVER, S-9, AROCLOR 1254 (10%), Method: PREINCUBATION inactive; negative | [2] inactive; negative | Strain/Indicator: TA100, Metabolic Activation: RAT, LIVER, S-9, AROCLOR 1254 (10%), Method: PREINCUBATION inactive; negative | Strain/Indicator: TA1535, Metabolic Activation: HAMSTER, LIVER, S-9, AROCLOR 1254 (10%), Method: PREINCUBATION inactive; negative | Strain/Indicator: TA1535, Metabolic Activation: NONE, Method: PREINCUBATION inactive; negative | Strain/Indicator: TA1535, Metabolic Activation: RAT, LIVER, S-9, AROCLOR 1254 (10%), Method: PREINCUBATION inactive; negative | Strain/Indicator: TA1537, Metabolic Activation: HAMSTER, LIVER, S-9, AROCLOR 1254 (10%), Method: PREINCUBATION inactive; negative | Strain/Indicator: TA1537, Metabolic Activation: NONE, Method: PREINCUBATION inactive; negative | Strain/Indicator: TA1537, Metabolic Activation: RAT, LIVER, S-9, AROCLOR 1254 (10%), Method: PREINCUBATION inactive; negative

COP(=S)(OC)SCC(=O)N(C)C=O
inactive: Strain/Indicator: TA97A, Metabolic Activation: NONE, Method: STANDARD PLATE inactive; negative | Strain/Indicator: TA97A, Metabolic Activation: PLANT, HOMOGENATE, S-14, Method: STANDARD PLATE inactive; negative | Strain/Indicator: TA97A, Metabolic Activation: S-9, Method: STANDARD PLATE inactive; negative | [3] inactive; negative | Strain/Indicator: TA98, Metabolic Activation: PLANT, HOMOGENATE, S-14, Method: STANDARD PLATE inactive; negative | Strain/Indicator: TA98, Metabolic Activation: S-9, Method: STANDARD PLATE inactive; negative | [4] inactive; negative | Strain/Indicator: TA100, Metabolic Activation: PLANT, HOMOGENATE, S-14, Method: STANDARD PLATE inactive; negative | Strain/Indicator: TA100, Metabolic Activation: S-9, Method: STANDARD PLATE inactive; negative | [5] inactive; negative | Strain/Indicator: TA1535, Metabolic Activation: PLANT, HOMOGENATE, S-14, Method: STANDARD PLATE inactive; negative | Strain/Indicator: TA1535, Metabolic Activation: S-9, Method: STANDARD PLATE inactive; negative

CCC(=O)OCc1ccc([N+](=O)[O-])cc1
inactive: [1] inactive; negative | Strain/Indicator: TA100(NR), Metabolic Activation: NONE, Method: PREINCUBATION inactive; negative
active: [2] active; positive | Strain/Indicator: TA100, Metabolic Activation: RAT, LIVER, S-9, AROCLOR 1254, Method: PREINCUBATION active; positive

C=C(C)C(=O)OCC(C)(C)C
inactive: [3] inactive; negative | Strain/Indicator: TA98, Metabolic Activation: RAT, LIVER, S-9, AROCLOR 1254, Method: STANDARD PLATE inactive; negative | Strain/Indicator: TA98, Metabolic Activation: RAT, LIVER, S-9, SODIUM PHENOBARBITAL, Method: STANDARD PLATE inactive; negative | [4] inactive; negative | Strain/Indicator: TA100, Metabolic Activation: RAT, LIVER, S-9, AROCLOR 1254, Method: STANDARD PLATE inactive; negative | Strain/Indicator: TA100, Metabolic Activation: RAT, LIVER, S-9, SODIUM PHENOBARBITAL, Method: STANDARD PLATE inactive; negative | [5] inactive; negative | Strain/Indicator: TA1535, Metabolic Activation: RAT, LIVER, S-9, AROCLOR 1254, Method: STANDARD PLATE inactive; negative | Strain/Indicator: TA1535, Metabolic Activation: RAT, LIVER, S-9, SODIUM PHENOBARBITAL, Method: STANDARD PLATE inactive; negative | [6] inactive; negative | Strain/Indicator: TA1537, Metabolic Activation: RAT, LIVER, S-9, AROCLOR 1254, Method: STANDARD PLATE inactive; negative | Strain/Indicator: TA1537, Metabolic Activation: RAT, LIVER, S-9, SODIUM PHENOBARBITAL, Method: STANDARD PLATE inactive; negative | Strain/Indicator: TA1538, Metabolic Activation: NONE, Method: STANDARD PLATE inactive; negative | Strain/Indicator: TA1538, Metabolic Activation: RAT, LIVER, S-9, AROCLOR 1254, Method: STANDARD PLATE inactive; negative | Strain/Indicator: TA1538, Metabolic Activation: RAT, LIVER, S-9, SODIUM PHENOBARBITAL, Method: STANDARD PLATE inactive; negative

O=S(=O)(Cc1ccccc1)N1[C@@H]2c3ccccc3-c3ccccc3[C@@H]21 (stereo partly specified)
active: [4] active; positive

O=C(Nc1ccccc1Cl)c1csc([N+](=O)[O-])c1
active: [3] active; positive | [4] active; positive

CCC1C(C)=NN=C(c2ccc(OC)c(OC)c2)c2cc(OC)c(OC)cc21 (stereo unspecified)
inactive: Strain/Indicator: TA97, Metabolic Activation: NONE, Method: STANDARD PLATE inactive; negative | Strain/Indicator: TA97, Metabolic Activation: RAT LIVER S-9, AROCLOR 1254, Method: STANDARD PLATE inactive; negative | [3] inactive; negative | Strain/Indicator: TA98, Metabolic Activation: RAT LIVER S-9, AROCLOR 1254, Method: STANDARD PLATE inactive; negative | [4] inactive; negative | Strain/Indicator: TA100, Metabolic Activation: RAT LIVER S-9, AROCLOR 1254, Method: STANDARD PLATE inactive; negative | Strain/Indicator: TA102, Metabolic Activation: NONE, Method: STANDARD PLATE inactive; negative | Strain/Indicator: TA102, Metabolic Activation: RAT LIVER S-9, AROCLOR 1254, Method: STANDARD PLATE inactive; negative | [6] inactive; negative | Strain/Indicator: TA1537, Metabolic Activation: RAT LIVER S-9, AROCLOR 1254, Method: STANDARD PLATE inactive; negative
